Where no end group is shown, it is not given here.
Key:
Meth A sarcoma = test: Tumor growth inhibition (tumor volume) in solid tumor-bearing mice, subcutaneous administration; format: in vivo, BALB/c mice; settings: for tumor growth inhibiting effect (tumor volume): FIG. 3, days 1 to 11, vs distilled water; for antitumor activity (tumor volume) / order of intensities of the antitumor activity: FIG. 10
Protocol: Solid tumor-bearing mice were prepared by subcutaneously administering 0.2 ml of Meth A sarcoma cells (5×10^6 cells/ml) into the left flank of five-week-old BALB/c male mice (Japan SLC). After 6 to 10 days from sarcoma implantation, when the diameter of the post-implantation tumor in tumor-bearing mice arrived at 4 mm was taken as day 1 and, on days 1 to 11, distilled water (D.W.) as a control or 20 mg/kg/day of each of the above dendrimers (1) to (3) was subcutaneously administered for 11 consecutive days (4 mice were used in each group).
The antitumor effect of each dendrimer peptide was evaluated 6 days after implantation and thereafter by examining the tumor growth, the body weight change and the survival time (days) as an indicator of side effect. At the same time, the minor axis and major axis of each tumor were measured and the tumor volume was calculated according to the formula shown below.
Tumor volume=0.4×a×b^2 (a: major axis, b: minor axis)
Doses of 10 mg/kg×twice/day and 20 mg/kg×twice/day of the dendrimer peptide derived from the peptide of SEQ ID NO:1 as synthesized in Example 4 (1) and a dose of 20 mg/kg×twice/day of a dendrimer peptide (SEQ ID NO:18) derived from a peptide resulting from replacement of an arbitrary sequence for the sequence shown in SEQ ID NO:1, and distilled water (DW) as a control were subcutaneously administered to mice on days 1 to 10 after tumor cell implantation according to the method of Example 4 (2), and the tumor growth inhibiting activities were examined. Four to six mice per group were subjected to the experiment. The results obtained are shown in FIG. 5 in the same manner as in FIG. 3 (ordinate: tumor volume (cm^3), abscissa: days after tumor cell implantation (days)).
The three short-chain peptides synthesized and physiological saline as a control were respectively administered subcutaneously to mice on days 1 to 10 following tumor cell implantation according to the method of Example 4 (2), and the tumor growth inhibiting activities were examined. The results obtained are shown in FIG. 6 in the same manner as in FIG. 3.
(§1) A dose of 20 mg/kg/day of each of the peptides synthesized in the above manner or distilled water (DW) as a control was subcutaneously administered to mice on days 4 to 9 after tumor cell implantation according to the method of Example 4 (2), and the tumor growth inhibiting activities were examined. Three to five mice per group were used in the experiment. The results are shown in FIG. 7 in the same manner as in FIG. 3.
as §1, with “or physiological saline” for “or distilled water (DW)”, “days 1” for “days 4”, “to 10” for “to 9”, “examined. Four or” for “examined. Three to”, “FIG. 8” for “FIG. 7”
as §1, with “water” for “water (DW)”, “days 1” for “days 4”, “to 10” for “to 9”, “examined. Five or six” for “examined. Three to five”, “FIG. 9” for “FIG. 7”
as §1, with “water or physiological saline” for “water (DW)”, “days 1” for “days 4”, “to 10” for “to 9”, “examined. Five or six” for “examined. Three to five”, “FIG. 10 (results with the peptides of SEQ ID NO:28-32) and FIG. 11 (results with the peptides of SEQ ID NO:33-35)” for “FIG. 7”, “3. […]” for “3.”

[1] = test system: B16BL6 melanoma tumor tissue; test: Competitive inhibition experiment using the respective phages and synthetic 15-residue peptides; format: in vivo, C57BL/6 mice; settings: for % Dose/100 mg tissue: tail vein; for inhibitory activity against accumulation of phages Nos. 5 and 6: synthetic peptides with common sequence WRP
Protocol: The synthetic peptides having the amino acid sequences shown in SEQ ID NO:1, 5 and 6 were respectively administered simultaneously with the phages No. 1, No. 5 and No. 6 in a similar manner as in Example 1 (5). Each peptide was synthesized as in Example 2.
(§2) Thus, 10 days after implantation of B16BL6 melanoma (1×10^6 cells) into five-week-old C57BL/6 mice (obtained from Japan SLC), a mixed solution (0.2 ml) of 0.25 μmol of one of the above synthetic peptides and the respective phage (1×10^8 colony forming units) was administered into the tail vein of each tumor-bearing mouse under anesthesia, and the colony forming units of the phage accumulated in the tumor tissue were counted in a similar manner as mentioned above.
In a control group, synthetic peptide-free phage solutions (1×10^8 colony forming units) were administered.
Phages accumulated in neovascular tissues in tumor tissues were counted through colony formation, and each synthetic peptide was evaluated for its inhibitory effect on phage accumulation using, as a reference value, the ratio of accumulation of the peptide-expressing phage in tumor without simultaneous administration of the synthetic peptide.

[2] = test system: B16BL6 melanoma tumor tissue; test: Competitive inhibition experiment using the respective phages and synthetic 8-residue or 5-residue peptides; format: in vivo, C57BL/6 mice; settings: for inhibition of phage accumulation in tumor by 5-residue synthetic peptides: FIG. 2, SEQ ID NO:15 with phage No. 5, SEQ ID NO:16 with phage No. 6; for cross reactivity between phages / inhibitory activity compared with the 15-residue synthetic peptides / inhibition of phage accumulation by 8-residue synthetic peptides: FIG. 1; for inhibition of phage accumulation by 8-residue synthetic peptides: phages expressing the corresponding 15-residue peptides (Nos. 5 and 6)
Protocol: as §2
Using a similar method as described above under (2) and using the four short-chain peptides (SEQ ID NO:13 to 16) obtained as mentioned above under (2) in lieu of the synthetic peptides (SEQ ID NO:5 and 6), the synthetic peptides and the respective phages were administered and colony forming units for the phages accumulated in the tumor tissue were counted, and the short-chain synthetic peptides were evaluated for their inhibitory effect on phage accumulation. In a control group,synthetic peptide-free phage solutions (1×10^8 colony forming units) were administered.
In each figure, the ordinate denotes the phase accumulation percentage (%) and the abscissa denotes the phage number. In FIG. 1, the open bar is for the group (control group) given the phage alone without administration of any synthetic peptide, the shaded bar is for the group given the short-chain synthetic peptide shown in SEQ ID NO:13 and the closed bar is for the group given the short-chain synthetic peptide shown in SEQ ID NO:14.
In FIG. 2, the open bar is for the group (control group) given the phage alone without administration of any synthetic peptide, the closed bar is for the group given the short-chain peptide shown in SEQ ID NO:15 (where phage No. 5 was used) and the shaded bar is for the group given the short-chain peptide shown in SEQ ID NO:16 (where phage No. 6 was used).

[3] = FIG. 6, subcutaneously, days 1 to 10, vs physiological saline
[4] = accumulation of phage No. 1 (1×10^8 cfu) co-administered with 0.25 μmol synthetic peptide
[5] = accumulation of phage No. 5 (1×10^8 cfu) co-administered with 0.25 μmol synthetic peptide
[6] = accumulation of phage No. 6 (1×10^8 cfu) co-administered with 0.25 μmol synthetic peptide
[7] = inhibition of phage No. 1 accumulation in tumor by 0.25 μmol synthetic peptide
[8] = inhibition of phage No. 5 accumulation in tumor by 0.25 μmol synthetic peptide
[9] = inhibition of phage No. 6 accumulation in tumor by 0.25 μmol synthetic peptide
[10] = 20 mg/kg/day subcutaneously, days 1 to 10

With “(ASSSYPLIHWRPWAR)8-LYs4-Lys2-Lys-βAla (also: octameric lysine dendrimer (Lys4-Lys2-Lys-βAla core), 8 copies)” the “tumor growth inhibiting effect (tumor volume)” value (from here on “tumor growth inhibiting effect”) (Meth A sarcoma; 20 mg/kg/day subcutaneously) was “marked tumor growth inhibiting effects”.
“(DRWRPALPVVLFPLH)8-Lys4-Lys2-Lys-βAla (also: octameric lysine dendrimer (Lys4-Lys2-Lys-βAla core), 8 copies)” was tested, and the “tumor growth inhibiting effect” value (Meth A sarcoma; 20 mg/kg/day subcutaneously) was “marked tumor growth inhibiting effects”.
With “(PRPGAPLAGSWPGTS)8-Lys4-Lys2-Lys-βAla (also: octameric lysine dendrimer (Lys4-Lys2-Lys-βAla core), 8 copies)” the “tumor growth inhibiting effect” value (Meth A sarcoma; 20 mg/kg/day subcutaneously) was “marked tumor growth inhibiting effects” and the “tumor growth inhibiting activity (tumor volume)” value (“tumor growth inhibiting activity” for short) (Meth A sarcoma; FIG. 5, 10 and 20 mg/kg×twice/day subcutaneously, days 1 to 10) was “dose-dependent tumor growth inhibiting activity”.
For APRPG (APRPG-NH2) [SEQ ID NO: 17], the “tumor growth inhibiting activity” value (Meth A sarcoma; [3]) was “tendency toward inhibition of tumor growth”.
With “ASSSYPLIHWRPWAR (phage library) [SEQ ID NO: 6]” the “% Dose/100 mg tissue” value [1, 4] was 5.92 × 10^−3 % Dose/100 mg tissue, the “% Dose/100 mg tissue” value [1, 5] was 3.61 × 10^−3 % Dose/100 mg tissue and the “% Dose/100 mg tissue” value [1, 6] was 6.43 × 10^−3 % Dose/100 mg tissue. For the same substance, the Accumulation inhibition % [1, 7] was 55%, the Accumulation inhibition % [1, 8] was 76% and the Accumulation inhibition % [1, 9] was 44%. For the same substance, the “inhibitory activity against accumulation of phages Nos. 5 and 6” value [1] was “crosswise inhibitory activity”.
With “DRWRPALPVVLFPLH (phage library) [SEQ ID NO: 5]” the “% Dose/100 mg tissue” value [1, 4] was 6.36 × 10^−3 % Dose/100 mg tissue, the “% Dose/100 mg tissue” value [1, 5] was 5.08 × 10^−3 % Dose/100 mg tissue and the “% Dose/100 mg tissue” value [1, 6] was 6.60 × 10^−3 % Dose/100 mg tissue. It also gave an Accumulation inhibition % [1, 7] of 52%, an Accumulation inhibition % [1, 8] of 66% and an Accumulation inhibition % [1, 9] of 43%. For the same substance, the “inhibitory activity against accumulation of phages Nos. 5 and 6” value [1] was “crosswise inhibitory activity” and the “tumor growth inhibiting activity” value (Meth A sarcoma; FIG. 7, 20 mg/kg/day subcutaneously, days 4 to 9) was “have tumor growth inhibiting activity”.
HWRPW (HWRPW-NH2) [SEQ ID NO: 16] was tested, and the “inhibition of phage accumulation in tumor by 5-residue synthetic peptides” value [2] was “inhibit likewise the accumulation in tumor of the phages”.
With “PRPGAPLAGSWPGTS (phage library) [SEQ ID NO: 1]” the “% Dose/100 mg tissue” value [1, 4] was 5.95 × 10^−3 % Dose/100 mg tissue, the “% Dose/100 mg tissue” value [1, 5] was 1.35 × 10^−2 % Dose/100 mg tissue and the “% Dose/100 mg tissue” value [1, 6] was 1.14 × 10^−2 % Dose/100 mg tissue. For the same substance, the Accumulation inhibition % [1, 7] was 55% and the Accumulation inhibition % [1, 8] was 9%.
RWRPA (RWRPA-NH2) [SEQ ID NO: 15] was tested, and the “inhibition of phage accumulation in tumor by 5-residue synthetic peptides” value [2] was “inhibit likewise the accumulation in tumor of the phages”.
For “SEQ ID NO: 13: 8-Residue peptide comprising positions 1 to 8 of SEQ ID NO: 5 (DRWRPALP; phage library)”, the “cross reactivity between phages” value [2] was “showed cross reactivity”, the “inhibitory activity compared with the 15-residue synthetic peptides” value [2] was “higher in inhibitory activity than the 15-resiude synthetic peptides” and the “inhibition of phage accumulation by 8-residue synthetic peptides” value [2] was “inhibited the accumulation of the phages”.
With “SEQ ID NO: 14: 8-Residue peptide comprising positions 8 to 15 of SEQ ID NO: 6 (IHWRPWAR; phage library)” the “cross reactivity between phages” value [2] was “showed cross reactivity”, the “inhibitory activity compared with the 15-residue synthetic peptides” value [2] was “higher in inhibitory activity than the 15-resiude synthetic peptides” and the “inhibition of phage accumulation by 8-residue synthetic peptides” value [2] was “inhibited the accumulation of the phages”.
“SEQ ID NO: 19: 12-Residue peptide containing positions 1 to 8 of SEQ ID NO: 1 (ADGAPRPGAPLA; phage library)” was tested, and the “tumor growth inhibiting activity” value (Meth A sarcoma; [3]) was “tendency toward inhibition of tumor growth”.
“SEQ ID NO: 28: 4-Residue peptide comprising positions 2 to 5 of SEQ ID NO: 5 (RWRP; phage library)” was tested, and the “antitumor activity (tumor volume)” value (Meth A sarcoma; [10]) was “has antitumor activity” and the “order of intensities of the antitumor activity” value (shortened to “order”) (Meth A sarcoma; [10]) was “peptide of SEQ ID NO:28=peptide of SEQ ID NO:29>peptide of SEQ ID NO:30=peptide of SEQ ID NO:31>peptide of SEQ ID NO:32”.
“SEQ ID NO: 29: 4-Residue peptide comprising positions 9 to 12 of SEQ ID NO: 6 (HWRP; phage library)” was tested, and the “antitumor activity (tumor volume)” value (Meth A sarcoma; [10]) was “has antitumor activity” and the “order” value (Meth A sarcoma; [10]) was “peptide of SEQ ID NO:28=peptide of SEQ ID NO:29>peptide of SEQ ID NO:30=peptide of SEQ ID NO:31>peptide of SEQ ID NO:32”.
For “SEQ ID NO: 30: 4-Residue peptide comprising positions 3 to 12 of SEQ ID NO: 5 (WRPA; phage library)”, the “antitumor activity (tumor volume)” value (Meth A sarcoma; [10]) was “has antitumor activity” and the “order” value (Meth A sarcoma; [10]) was “peptide of SEQ ID NO:28=peptide of SEQ ID NO:29>peptide of SEQ ID NO:30=peptide of SEQ ID NO:31>peptide of SEQ ID NO:32”.
With “SEQ ID NO: 31: 4-Residue peptide comprising positions 10 to 13 of SEQ ID NO: 6 (WRPW; phage library)” the “antitumor activity (tumor volume)” value (Meth A sarcoma; [10]) was “has antitumor activity” and the “order” value (Meth A sarcoma; [10]) was “peptide of SEQ ID NO:28=peptide of SEQ ID NO:29>peptide of SEQ ID NO:30=peptide of SEQ ID NO:31>peptide of SEQ ID NO:32”.
In the case of “Trp-Arg-Pro (WRP; phage library) [SEQ ID NO: 32]”, the “antitumor activity (tumor volume)” value (Meth A sarcoma; [10]) is reported as “has antitumor activity” and the “order” value (Meth A sarcoma; [10]) is reported as “peptide of SEQ ID NO:28=peptide of SEQ ID NO:29>peptide of SEQ ID NO:30=peptide of SEQ ID NO:31>peptide of SEQ ID NO:32”.
